Test results: US20210128457A1 (priority 2019, published 2021)
Where two headings read alike, the source gives them in different places.

Columns and labels:
cochlear hair cells = experiment: Gentamicin distribution in cochlear hair cells, RWS versus transcanal USM; conditions: stood 3 minutes without ultrasound
Text: Because phalloidin binds to the cytoskeletal actin, it is used to mark the location of hair cells. […] Merge column is the overlay of the left two columns, it is more obvious to see the distribution of gentamicin in the cochlea. […] The green dots indicated the uptake of gentamicin in the hair cells.

[1] = assay type: in vitro ADME
Text: In order to understand the effect of ultrasound transcranial administration (behind the ear) to release the drug through the round window membrane (single-membrane), and the effect of ultrasound transcanal administration to release the drug through the eardrum and the round window membrane (two-membranes), 3D-printed material extrusion was used for designing three drug delivery devices:
M1: single-membrane group (FIGS. 5A to 5C), a dialysis membrane 80 was sandwiched between the donor end 10 (Donor area) and the receiving end 20 (Receptor area) for mimicking the position of the round window membrane.
M1-20°: single-membrane with tilt group, the round window membrane of the guinea pig's ear was not perpendicular to the ear canal, so the ultrasonic probe originally perpendicular to the donor end 10 was tilted at an angle of about 20 degrees (FIG. 5C) to make the experiment more realistic. That is, after the top of the ultrasonic probe was placed at the surface center of saline in the donor end 10, the angle between the long axis direction of the ultrasonic probe and the long axis direction of the device was about 20 degrees.
M1+B: The single-membrane transcranial group (FIG. 5D) differed from the single-membrane group in that the skull 90 was placed on top of the donor end 10; and
M2: two-membranes group (FIGS. 5E to 5F), the dialysis membranes 80 were respectively sandwiched between the donor end 10 and the interval chamber 30 of the device, and between the interval chamber 30 and the receiving end 20, where the donor end 10 simulated the external ear canal, the interval chamber 30 simulated the middle ear cavity, and the receiving end 20 simulated the inner ear.
The above groups simulated the actual guinea pig's ear structure and the volume in each area. The printing material was polyethylene terephthalate (PETG). A suitable molecular weight (Orange scientific, OrDial D-Clean, MW=1000) was chosen for the dialysis membrane 80 to separate the sample from the tested drug. About 400 μL of saline was injected into the receiving end 20 to simulate the actual inner ear lymph fluid volume of the guinea pig. […] The experiment samples were injected to the donor end 10 of the single-membrane group, the single-membrane transcranial group and the single-membrane with tilt group, and were injected to the interval chamber 30 of the two-membranes group, to mimic the volume of the middle ear cavity in the middle ear cavity of the guinea pigs. The single-membrane group and the two-membranes group were subjected to 3 W/cm^2 ultrasonic waves for 3 times (1 minute each time), while the single-membrane transcranial group blocked by the skull 90 was extended to 3 times (3 minutes each time) to ensure inducing the cavitation. […] In each group, saline in the receiving end 20 before the experiment, saline in the donor end 10 or the interval chamber 30 after the experiment, and saline in the receiving end 20 after the experiment were sampled for detecting fluorescence value.

[2] = assay type: in vivo, guinea pigs; conditions: guinea pig
Text: Pigmented guinea pigs with normal sound reflection (Preyer's reflex) were used. The experimental group was divided into the following four groups:
The structure of the ear includes an outer ear 110, a middle ear 120, an inner ear 130, a tympanic membrane 140, and a round window membrane 150. The outer ear 110 includes an external ear canal 111, the middle ear 120 includes auditory ossicles 121 and a middle ear cavity 122, and the inner ear 130 includes a cochlea 131. The ultrasonic device 210 was placed in the external ear canal 111, and the ultrasound waves were generated by an ultrasonic device 210. The ultrasound waves were transmitted to the middle ear cavity 122 and induced the cavitation on the microbubbles 220 located in the middle ear cavity 122.
3 W/cm^2 ultrasound was administered three times (3 minutes each time) at the mark place, and the solution in the middle ear cavity was replaced every time.
After the animal experiment (n=4), the animals were sacrificed and the tympanic bullae were taken out. About 10 μL of perilymph fluid was collected and centrifuged. The supernatant was diluted at a ratio of 1:100 for detecting fluorescence value.
After the animal experiment had finished (n=4), the animals were sacrificed and the tympanic bullae were taken out. About 10 μL of perilymph fluid was collected and centrifuged. The supernatant was diluted at a ratio of 1:100 for detecting fluorescence value.

Substance	gentamicin uptake in hair cells (green fluorescence), second turn and third turn (cochlear hair cells)	ratio of permeability USM/RWS ([1]; M1+B single-membrane transcranial group)	relative fluorescence units of saline in the receiving end ([1]; M1+B single-membrane transcranial group, RWS) [RFU]	relative fluorescence units of saline in the receiving end ([1]; M1+B single-membrane transcranial group, USM, 3 W/cm^2, 3 times 3 minutes) [RFU]	ratio of permeability USM/RWS ([1]; M1-20° single-membrane with tilt group)	relative fluorescence units of saline in the receiving end ([1]; M1-20° single-membrane with tilt group, RWS) [RFU]	relative fluorescence units of saline in the receiving end ([1]; M1-20° single-membrane with tilt group, USM) [RFU]	ratio of permeability USM/RWS ([1]; M1 single-membrane group)	relative fluorescence units of saline in the receiving end ([1]; M1 single-membrane group, USM, 3 W/cm^2, 3 times 1 minute) [RFU]	relative fluorescence units of saline in the receiving end ([1]; M1 single-membrane group, round window soaking (RWS)) [RFU]	ratio of permeability USM/RWS ([1]; M2 two-membranes group)	relative fluorescence units of saline in the receiving end ([1]; M2 two-membranes group, RWS) [RFU]	relative fluorescence units of saline in the receiving end ([1]; M2 two-membranes group, USM, 3 W/cm^2, 3 times 1 minute) [RFU]	relative fluorescence units of perilymph fluid ([2]; RWS group A, stood 3 minutes without ultrasound) [RFU]	relative fluorescence units of perilymph fluid ([2]; RWS group B, stood 9 minutes without ultrasound) [RFU]	ratio of permeability transcanal USM/RWS group A [2]	ratio of permeability transcranial USM/RWS group B [2]	relative fluorescence units of perilymph fluid ([2]; transcanal group (USM), 3 W/cm^2, 3 times 1 minute) [RFU]	relative fluorescence units of perilymph fluid ([2]; transcranial group (USM), 3 W/cm^2, 3 times 3 minutes) [RFU]
Gentamicin	did not found the dot-like fluorescence	–	–	–	–	–	–	–	–	–	–	–	–	–	–	–	–	–	–
biotin-FITC	–	about 3.74 folds	631.5±21.12	2362±64.91	about 5.67 folds	309.7±20.54	1756.3±76.29	about 6.91 folds	2726.3±79.97	394.5±5.3	about 4.77 folds	285.7±7.45	1363.7±56.66	1633.33±72.63	6700±69.74	about 2.83 folds	about 1.5 folds	4206.83±202.93	10113±338.8
